Source: patent US20250084071A1, “COMPOUNDS AND COMPOSITIONS FOR TREATING CONDITIONS ASSOCIATED WITH STING ACTIVITY” (NOVARTIS PHARMA AG, priority 2022, published 2025)

Target: T1, STING (Homo sapiens, UniProt Q86WV6, G230A/H232R/R293Q/R71H)
T1 construct: host or cells: THP1-Dual KO-IFNAR2 cells
Assay: STING reporter assay in THP1-Dual KO-IFNAR2 cells (luciferase reporter, 2′3′cGAMP stimulation)
Assay type: cell-based
Conditions: 2′3′cGAMP 15 μM, 24 h, luciferase reporter activity, GeoMean, read-out: Pharmaron, THP1_IFNAR2 STING 24 h Luci Normalized: GeoMean EC50
Procedure: STING pathway activation by the compounds described herein was measured using THP1-Dual™ cells (KO-IFNAR2).
THP1-Dual™ KO-IFNAR2 Cells (obtained from invivogen) were maintained in RPMI, 10% FCS, 5 ml P/S, 2 mM L-glut, 10 mM Hepes, and 1 mM sodium pyruvate. Compounds were spotted in empty 384 well tissue culture plates (Greiner 781182) by Echo for a final concentration of 0.0017-100 μM. Cells were plated into the TC plates at 40 μL per well, 2×10E6 cells/mL. For activation with STING ligand, 2′3′cGAMP (MW 718.38, obtained from Invivogen), was prepared in Optimem media.
The following solutions were prepared for each 1×384 plate: • Solution A: 2 mL Optimem with one of the following stimuli: • […] of 10 mM 2′3′cGAMP→150 μM stock • Solution B: 2 mL Optimem with 60 μL Lipofectamine 2000→Incubate 5 min at RT • 2 mL of solution A and 2 ml Solution B was mixed and incubated for 20 min at room temperature (RT). 20 μL of transfection solution (A+B) was added on top of the plated cells, with a final 2′3′cGAMP concentration of 15 μM. The plates were then centrifuged immediately at 340 g for 1 minute, after which they were incubated at 37° C., 5% CO2, >98% humidity for 24 h. Luciferase reporter activity was then measured. EC50 values were calculated by using standard methods known in the art.
Luciferase reporter assay: 10 μL of supernatant from the assay was transferred to white 384-plate with flat bottom and squared wells. One pouch of QUANTI-Luc™ Plus was dissolved in 25 mL of water. 100 μL of QLC Stabilizer per 25 mL of QUANTI-Luc™ Plus solution was added. 50 μL of QUANTI-Luc™ Plus/QLC solution per well was then added. Luminescence was measured on a Platereader (e.g., Spectramax I3X (Molecular Devices GF3637001)).
Luciferase reporter activity was then measured. EC50 values were calculated by using standard methods known in the art.

T1 sequence (Q86WV6 whole entry R71H/G230A/H232R/R293Q): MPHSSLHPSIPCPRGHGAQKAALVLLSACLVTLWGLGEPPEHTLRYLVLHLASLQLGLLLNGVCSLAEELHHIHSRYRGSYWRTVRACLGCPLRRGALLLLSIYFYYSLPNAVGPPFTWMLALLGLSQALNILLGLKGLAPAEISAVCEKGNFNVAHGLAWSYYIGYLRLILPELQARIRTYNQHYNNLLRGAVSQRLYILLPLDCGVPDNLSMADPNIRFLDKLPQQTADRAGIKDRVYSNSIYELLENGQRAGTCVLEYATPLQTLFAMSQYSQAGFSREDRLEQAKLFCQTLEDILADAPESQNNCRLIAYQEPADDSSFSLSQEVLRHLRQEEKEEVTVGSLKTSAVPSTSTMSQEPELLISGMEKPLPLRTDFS

SMILES | EC50 [nM]
O=S(=O)(Cc1ccccc1)Nc1c[nH]c2ccc(OCCc3ccc(C(F)(F)F)cc3)cc12 [Compound 122, 1-phenyl-N-(5-(4-(trifluoromethyl)phenethoxy)-1H-indol-3-yl)methanesulfonamide] | 40 to 200
O=S(=O)(CC1CC1)Nc1c[nH]c2ccc(OCCc3ccc(C(F)(F)F)cc3)cc12 [Compound 124, 1-cyclopropyl-N-(5-(4-(trifluoromethyl)phenethoxy)-1H-indol-3-yl)methanesulfonamide] | 40 to 200
Cn1cnc(S(=O)(=O)Nc2c[nH]c3ccc(CCOc4ccc(C(F)(F)F)cc4)cc23)c1 [Compound 111, 1-methyl-N-(5-(2-(4-(trifluoromethyl)phenoxy)ethyl)-1H-indol-3-yl)-1H-imidazole-4-sulfonamide] | 200 to 1000
COCCS(=O)(=O)Nc1c[nH]c2ccc(CCOc3ccc(C(F)(F)F)cc3)cc12 [Compound 109, 2-methoxy-N-(5-(2-(4-(trifluoromethyl)phenoxy)ethyl)-1H-indol-3-yl)ethane-1-sulfonamide] | 200 to 1000
CCS(=O)(=O)Nc1c[nH]c2ccc(OCCc3ccc(C(F)(F)F)cc3)cc12 [Compound 121, N-(5-(4-(trifluoromethyl)phenethoxy)-1H-indol-3-yl)ethanesulfonamide] | 200 to 1000
O=S(=O)(CC1CCOCC1)Nc1c[nH]c2ccc(CCOc3ccc(C(F)(F)F)cc3)cc12 [Compound 108, 1-(tetrahydro-2H-pyran-4-yl)-N-(5-(2-(4-(trifluoromethyl)phenoxy)ethyl)-1H-indol-3-yl)methanesulfonamide] | 200 to 1000
CCS(=O)(=O)Nc1c[nH]c2ccc(CCOc3ccc(C(F)(F)F)cc3)cc12 [Compound 113, N-(5-(2-(4-(trifluoromethyl)phenoxy)ethyl)-1H-indol-3-yl)ethanesulfonamide] | 200 to 1000
O=S(=O)(Nc1c[nH]c2ccc(CCOc3ccc(C(F)(F)F)cc3)cc12)c1cccc(Cl)n1 [Compound 104, 6-chloro-N-(5-(2-(4-(trifluoromethyl)phenoxy)ethyl)-1H-indol-3-yl)pyridine-2-sulfonamide] | 200 to 1000
O=S(=O)(CCC1CC1)Nc1c[nH]c2ccc(CCOc3ccc(C(F)(F)F)cc3)cc12 [Compound 112, 2-cyclopropyl-N-(5-(2-(4-(trifluoromethyl)phenoxy)ethyl)-1H-indol-3-yl)ethane-1-sulfonamide] | 200 to 1000
O=S(=O)(CCC(F)(F)F)Nc1c[nH]c2ccc(CCOc3ccc(C(F)(F)F)cc3)cc12 [Compound 106, 3,3,3-trifluoro-N-(5-(2-(4-(trifluoromethyl)phenoxy)ethyl)-1H-indol-3-yl)propane-1-sulfonamide] | 40 to 200
Cn1ccc(S(=O)(=O)Nc2c[nH]c3ccc(CCOc4ccc(C(F)(F)F)cc4)cc23)n1 [Compound 107, 1-methyl-N-(5-(2-(4-(trifluoromethyl)phenoxy)ethyl)-1H-indol-3-yl)-1H-pyrazole-3-sulfonamide] | 200 to 1000
O=S(=O)(CC1CCCO1)Nc1c[nH]c2ccc(CCOc3ccc(C(F)(F)F)cc3)cc12 (centres unmarked) [Compound 125, 1-(tetrahydrofuran-2-yl)-N-(5-(2-(4-(trifluoromethyl)phenoxy)ethyl)-1H-indol-3-yl)methanesulfonamide] | 200 to 1000
O=S(=O)(Nc1c[nH]c2ccc(OCCc3ccc(C(F)(F)F)cc3)cc12)C1CCOCC1 [Compound 115, N-(5-(4-(trifluoromethyl)phenethoxy)-1H-indol-3-yl)tetrahydro-2H-pyran-4-sulfonamide] | 200 to 1000
O=S(=O)(CC1CCC1)Nc1c[nH]c2ccc(CCOc3ccc(C(F)(F)F)cc3)cc12 [Compound 114, 1-cyclobutyl-N-(5-(2-(4-(trifluoromethyl)phenoxy)ethyl)-1H-indol-3-yl)methanesulfonamide] | 200 to 1000
Cn1cc(S(=O)(=O)Nc2c[nH]c3ccc(OCCc4ccc(C(F)(F)F)cc4)cc23)cn1 [Compound 110, 1-methyl-N-(5-(4-(trifluoromethyl)phenethoxy)-1H-indol-3-yl)-1H-pyrazole-4-sulfonamide] | 40 to 200
COCCS(=O)(=O)Nc1c[nH]c2ccc(OCCc3ccc(C(F)(F)F)cc3)cc12 [Compound 123, 2-methoxy-N-(5-(4-(trifluoromethyl)phenethoxy)-1H-indol-3-yl)ethane-1-sulfonamide] | 200 to 1000
Cn1cnc(S(=O)(=O)Nc2c[nH]c3ccc(OCCc4ccc(C(F)(F)F)cc4)cc23)c1 [Compound 118, 1-methyl-N-(5-(4-(trifluoromethyl)phenethoxy)-1H-indol-3-yl)-1H-imidazole-4-sulfonamide] | 200 to 1000
Cn1ccc(S(=O)(=O)Nc2c[nH]c3ccc(OCCc4ccc(C(F)(F)F)cc4)cc23)n1 [Compound 116, 1-methyl-N-(5-(4-(trifluoromethyl)phenethoxy)-1H-indol-3-yl)-1H-pyrazole-3-sulfonamide] | 200 to 1000
O=S(=O)(CCC(F)(F)F)Nc1c[nH]c2ccc(OCCc3ccc(C(F)(F)F)cc3)cc12 [Compound 120, 3,3,3-trifluoro-N-(5-(4-(trifluoromethyl)phenethoxy)-1H-indol-3-yl)propane-1-sulfonamide] | 200 to 1000
O=S(=O)(Nc1c[nH]c2ccc(CCOc3ccc(C(F)(F)F)cc3)cc12)C1CCOCC1 [Compound 105, N-(5-(2-(4-(trifluoromethyl)phenoxy)ethyl)-1H-indol-3-yl)tetrahydro-2H-pyran-4-sulfonamide] | 200 to 1000
O=S(=O)(CC1CC1)Nc1c[nH]c2ccc(CCOc3ccc(C(F)(F)F)cc3)cc12 [Compound 126, 1-cyclopropyl-N-(5-(2-(4-(trifluoromethyl)phenoxy)ethyl)-1H-indol-3-yl)methanesulfonamide] | 200 to 1000
O=S(=O)(CC1CCCO1)Nc1c[nH]c2ccc(OCCc3ccc(C(F)(F)F)cc3)cc12 (centres unmarked) [Compound 117, 1-(tetrahydrofuran-2-yl)-N-(5-(4-(trifluoromethyl)phenethoxy)-1H-indol-3-yl)methanesulfonamide] | 200 to 1000
O=S(=O)(CC1CCC1)Nc1c[nH]c2ccc(OCCc3ccc(C(F)(F)F)cc3)cc12 [Compound 119, 1-cyclobutyl-N-(5-(4-(trifluoromethyl)phenethoxy)-1H-indol-3-yl)methanesulfonamide] | 40 to 200
